Measured values reported in patent publication US20150079183A1, “Lercanidipine Hydrochloride and Losartan Potassium Compound Preparation and Preparation Method Thereof” (Zhaoke Pharmaceutical (Hefei) Company Limited, priority 2012, published 2015).
Structures can show the parent of a compound that is named as a salt.

Tests used:
[1] = test system: patients with light and moderate diastolic hypertension; test: Clinical trial study of Example 5 (compound preparation 5 mg lercanidipine + 20 mg losartan vs single drugs and amlodipine); assay type: in vivo, human; conditions: for Diastolic blood pressure Value changed / Systolic blood pressure Value changed: before treatment vs end of week 12; for Diastolic blood pressure Before dosing / Systolic blood pressure Before dosing: before treatment, mean ± SD; for Diastolic blood pressure After dosing / Systolic blood pressure After dosing: once daily
Method: After 14-20 days of washing stage, entering 14-30 days of introduction stage, during which single blinded placebos were taken. Blood pressures were measured in a return visit in every 7-10 days. Suitable patients were divided into treatment groups according to random principle.
(§1) 1.3 Observation indicators and method: blood, pressures were measured as per the requirements of international standard. A settled physician would follow up once a week and visited from 9:00 to 11:00. Every time heart rate and sitting blood pressure were measured 3 times and the 2 greater values were taken to calculate the mean value.
(§2) 1.4 Laboratory examinations: electrocardiogram, blood and urine routine, liver and kidney function, blood sugar, blood lipid and blood electrolyte examinations were performed before and after overall patient trial.
(§3) 1.6 Data processing and statistical method: the measurement data were calculated as mean±standard variation. Paired t-test was used to compare the quantitative indicators before and after the 4 treatment patterns. Chi-square test was used to compare the difference before and after administration.

[2] = test system: patients with light and moderate diastolic hypertension; test: Clinical trial study of Example 6 (compound preparation 7.5 mg lercanidipine + 20 mg losartan vs single drugs); assay type: in vivo, human; conditions: for Diastolic blood pressure Value changed / Systolic blood pressure Value changed: before treatment vs end of week 12; for Diastolic blood pressure Before dosing / Systolic blood pressure Before dosing: before treatment, mean ± SD
Excerpt: 1.1 Selection of cases: patients aged from 18-75 years old with light and moderate diastolic hypertension (supine diastolic blood pressure 95-115 mmHg), excluding severe hypertension (diastolic blood pressure >115 mmHg), secondary hypertension, heart disease, myocardial infarction, shock, transient ischemic stroke within the past 3 months, sinus bradycardia or sinus tachycardia, hypovolemia, liver and kidney dysfunction and diabetes. After 14-20 days of washing stage, entering 14-30 days of introduction stage, during which single blinded placebos were taken. Blood pressures were measured in a return visit in every 7-10 days. Suitable patients were divided into treatment groups according to random principle.
1.2 Trial method: there were totally 359 patients enrolled, and 305 patients entered the introduction stage and 266 entered the assessment stage.
as §1, with “blood” for “blood,”
as §2
1.5 Curative effect assessment: according to the regulations of The National Cardiovascular Epidemiology and Population Prevention report meeting summary in 1979: (1) markedly effective: diastolic blood pressure was decreased by ≧10 mmHg, and was decreased to normal (<90 mmHg) or decreased by more than 20 mmHg; (2) effective: diastolic blood pressure was decreased by 10-19 mmHg or was decreased by <10 mmHg, but reached normal; (3) failure: not reached above criteria.
as §3

| cases occurring gastrointestinal tract symptoms ([1]; 12 weeks of treatment) | cases occurring gastrointestinal tract symptoms ([2]; 12 weeks of treatment) | SMILES | Diastolic blood pressure Value changed [1] [mmHg] | Systolic blood pressure Value changed [1] [mmHg] | Diastolic blood pressure Before dosing [1] [mmHg] | Systolic blood pressure Before dosing [1] [mmHg] | Diastolic blood pressure After dosing ([1]; end of week 12 of treatment) [mmHg] | Systolic blood pressure After dosing ([1]; end of week 12 of treatment) [mmHg] | Diastolic blood pressure Value changed [2] [mmHg] | Systolic blood pressure Value changed [2] [mmHg] | Diastolic blood pressure Before dosing [2] [mmHg] | Systolic blood pressure Before dosing [2] [mmHg] | Diastolic blood pressure After dosing ([2]; end of week 12 of treatment) [mmHg] | Systolic blood pressure After dosing ([2]; end of week 12 of treatment) [mmHg] | further results |
| --- | --- | --- | --- | --- | --- | --- | --- | --- | --- | --- | --- | --- | --- | --- | --- |
| four | two | CCCCc1nc(Cl)c(CO)n1Cc1ccc(-c2ccccc2-c2nn[nH]n2)cc1 [losartan] | 11 ± 5 | 15 ± 9 | 100 ± 5 | 152 ± 9 | 81 ± 9 | 138 ± 6 | 14 ± 5 | 17 ± 5 | 102 ± 6 | 152 ± 7 | 83 ± 8 | 139 ± 5 | cases of dry mouth ([1]; 12 weeks of treatment): one; Effective rate (total effective rate for decreasing blood pressure) ([1]; end of week 12 of treatment; criteria of b72; listed as 3)): 75.1%; Effective rate (total effective rate for decreasing blood pressure) ([1]; end of week 12 of treatment, criteria of b72, listed as lorsartan): 75.1%; cases of dry mouth ([2]; 12 weeks of treatment): one; Effective rate (total effective rate for decreasing blood pressure) ([2]; end of week 12 of treatment; criteria of b91; listed as 3)): 77.3%; Effective rate (total effective rate for decreasing blood pressure) ([2]; end of week 12 of treatment, criteria of b91, listed as lorsartan): 77.3% |
| two | one | COC(=O)C1=C(C)NC(C)=C(C(=O)OC(C)(C)CN(C)CCC(c2ccccc2)c2ccccc2)C1c1cccc([N+](=O)[O-])c1 (stereo not shown) [lercanidipine hydrochloride] | 13 ± 8 | 19 ± 3 | 104 ± 9 | 152 ± 9 | 88 ± 7 | 139 ± 8 | 16 ± 6 | 19 ± 7 | 106 ± 8 | 156 ± 8 | 89 ± 7 | 136 ± 7 | cases of dizziness ([1]; 12 weeks of treatment): one; Effective rate (total effective rate for decreasing blood pressure) ([1]; end of week 12 of treatment, criteria of b72, hydrochloride): 70.8%; Effective rate (total effective rate for decreasing blood pressure) ([1]; end of week 12 of treatment; criteria of b72; listed as 2), hydrochloride): 70.8%; cases of dizziness ([2]; 12 weeks of treatment): one; Effective rate (total effective rate for decreasing blood pressure) ([2]; end of week 12 of treatment, criteria of b91, hydrochloride): 71.6%; Effective rate (total effective rate for decreasing blood pressure) ([2]; end of week 12 of treatment; criteria of b91; listed as 2), hydrochloride): 71.6% |
